Results from article PMC3199943, “Screening the MayBridge Rule of 3 Fragment Library for Compounds That Interact with the Trypanosoma brucei myo-Inositol-3-Phosphate Synthase and/or Show Trypanocidal Activity” (Molecular Biology International, 2011).
Where two headings read alike, the source gives them in different places.

Assays:
HeLa cells = assay: cells; details: for HeLa Cells Alamar Blue: Supplementary Table 1, compound 0.5 mM, percentage of controls, mean ± SD (n=3) or SE (n=2); for viability at 500 µM: 65 h
Method in brief: (§1)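 Viability by Alamar Blue (5 h) after ~65 h drug treatment; seeding density 2 × 10^4 cells/well in DMEM supplemented with 10% FCS and 2 mM L-Glutamine.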

A549 cells = assay: Cytotoxicity against A549 cells, Alamar Blue; assay type: cell-based; details: Supplementary Table 1, compound 0.5 mM, percentage of controls (n=1); for viability at 500 µM: Homo sapiens, A549, 65 h
Method in brief: as §1

TbINO1 = target: T1, TbINO1 (Trypanosoma brucei brucei, UniProt Q5QQ46); assay: biochemical; assay type: binding
T1 sequence (Q5QQ46 1-528): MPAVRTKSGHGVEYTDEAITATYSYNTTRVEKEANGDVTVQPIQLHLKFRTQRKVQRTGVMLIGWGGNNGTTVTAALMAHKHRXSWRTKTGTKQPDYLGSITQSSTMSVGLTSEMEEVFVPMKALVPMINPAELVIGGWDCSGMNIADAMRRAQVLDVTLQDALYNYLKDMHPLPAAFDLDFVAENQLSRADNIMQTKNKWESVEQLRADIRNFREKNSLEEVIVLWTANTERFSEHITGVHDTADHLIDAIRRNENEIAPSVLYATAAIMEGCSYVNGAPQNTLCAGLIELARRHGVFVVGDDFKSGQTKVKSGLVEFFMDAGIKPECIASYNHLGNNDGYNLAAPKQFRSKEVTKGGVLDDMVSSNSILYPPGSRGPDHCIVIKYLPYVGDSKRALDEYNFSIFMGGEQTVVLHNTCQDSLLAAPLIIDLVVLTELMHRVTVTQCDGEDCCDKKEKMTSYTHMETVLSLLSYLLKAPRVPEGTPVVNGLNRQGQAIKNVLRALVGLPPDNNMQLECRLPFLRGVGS

[1] = Supplementary Table 1, compound 1mM, mean ± SD from Boltzman curve fitting
[2] = Homo sapiens, HeLa, read-out: HeLa Cells Alamar Blue
[3] = read-out: Tb Ino1 Tm Shift [˚C]
[4] = Supplementary Table 1, compound 1mM, mean ± SD from Boltzman curve fitting, read-out: Tb Ino1 Tm Shift [˚C]

SMILES	viability at 500 µM (HeLa cells; [2]) [%]	viability at 500 µM (A549 cells) [%]	ΔTm at 1000 µM (TbINO1; [3]) [°C]	other results
Cc1cc(C(=O)O)c2cc(F)ccc2n1 [compound 660, 6‐fluoro‐2‐methyl‐4‐quinolinecarboxylic acid]	–	–	–	HeLa Cells Alamar Blue (HeLa cells): 103 ± 3.9 percentage of controls; A549 Cells Alamar Blue (A549 cells): 146.9 percentage of controls; Tb Ino1 Tm Shift [˚C] (TbINO1; [1]): 0.5 ± 0.06 °C
Cc1ccc(N)nc1 [compound 16, 5‐methylpyridin‐2‐amine]	101 ± 1.1	89.4	0.12 ± 0.06	–
Cc1[nH]c2ccc(C(=O)O)cc2c1C [compound 537, 2,3‐dimethyl‐1H‐indole‐5‐carboxylic acid]	89.3 ± 2.4	74.5	0.7 ± 0.08	–
OCc1cccc2c1OCO2 [compound 203, 1,3‐benzodioxol‐4‐ylmethanol]	94.6 ± 14.1	60.8	0.06 ± 0.08	–
Cc1nc(N)ccc1C#N [compound 102, 6‐amino‐2‐methylnicotinonitrile]	69.4 ± 12.4	76.1	0.27 ± 0.06	–
NCCc1cccs1 [compound 81, 2‐(2‐thienyl)ethylamine]	117 ± 8.9	119	–	ΔTm at 1000 µM (TbINO1; [4]): 0.09 ± 0.07 °C
CCc1cccc(C(C)=O)c1 [compound 174, 1‐(3‐ethylphenyl)ethan‐1‐one]	100 ± 7.3	79.2	0.8 ± 0.05	–
CNCc1c(-c2ccccc2)noc1C [compound 637, N‐methyl‐N‐[(5‐methyl‐3‐phenylisoxazol‐4‐yl)methyl]amine]	–	–	–	HeLa Cells Alamar Blue (HeLa cells): 79.8 ± 7.5 percentage of controls; A549 Cells Alamar Blue (A549 cells): 112.6 percentage of controls; Tb Ino1 Tm Shift [˚C] (TbINO1; [1]): 0.02 ± 0.07 °C
CCc1cccc(C)n1 [compound 52, 2‐ethyl‐6‐methylpyridine]	89.7 ± 9.7	70.8	0.4 ± 0.08	–
O=C(O)Cc1coc2ccccc12 [compound 410, benzo[b]furan‐3‐ylacetic acid]	54.1 ± 10.3	97.4	0.8 ± 0.07	–
c1cncc(-n2cccc2)c1 [compound 151, 3‐(1H‐pyrrol‐1‐yl)pyridine]	90.3 ± 6	90.1	0.43 ± 0.06	–
N#Cc1ccccc1OC(F)(F)F [compound 509, 2‐(trifluoromethoxy)benzonitrile]	106 ± 16.9	110	0.01 ± 0.08	–
CN1CCN(c2ccccc2N)CC1 [compound 561, 2‐(4‐methylpiperazin‐1‐yl)aniline]	74.3 ± 11.7	101	–	ΔTm at 1000 µM (TbINO1; [4]): 0.46 ± 0.07 °C
Cc1csc(C(N)=O)c1 [compound 134, 4‐methylthiophene‐2‐carboxamide]	83.1 ± 5.6	123	0.61 ± 0.07	–
Nc1ccccc1-n1ccnc1 [compound 262, 2‐(1H‐imidazol‐1‐yl)aniline]	66.5 ± 16.1	76	0.62 ± 0.08	–
O=C(O)[C@H]1CCCN1 [compound 37, D‐proline]	94.8 ± 10.1	78.6	0.41 ± 0.06	–
OCc1cccc2[nH]ccc12 [compound 163, 1H-indol-4-ylmethanol]	103 ± 8.7	47	–	viability at 500 µM (HeLa cells; Homo sapiens, HeLa, read-out: HeLa Cells Alamar Blue (% survival)): 103 ± 8.7%; CC50 (HeLa cells; Homo sapiens, HeLa, read-out: HeLa ED50): 2.5 ± 0.2 mM; ΔTm at 1000 µM (TbINO1; read-out: TbIno1 Tm shift [°C]): 1.9 ± 0.06 °C
Cc1cc(C(=O)O)c(-c2ccccc2)o1 [compound 635, 5‐methyl‐2‐phenyl‐3‐furoic acid]	17.7 ± 16.2	90.1	0.38 ± 0.04	–
N#CCCNCc1ccco1 [compound 189, 3‐[(2‐furylmethyl)amino]propanenitrile]	92.5 ± 7.2	84.4	0.75 ± 0.08	–
CCCc1ccc(C(C)=O)cc1 [compound 288, 1‐(4‐propylphenyl)ethan‐1‐one]	72.2 ± 17.1	90.6	0.22 ± 0.08	–
